Results on three molecules are retold here after patent publication US4201843A, “Process for manufacturing tylosin derivatives” (Sanraku Ocean Co., Ltd., priority 1975, dated 1980).

Series [1] has as its system Bacillus cereus ATCC 9634. The series can be described thus: minimum growth-inhibitory concentration. The note with it: ATCC9634. Type of series: cell-based. As to the method:
(§1) The antimicrobial spectra of new tylosin derivatives of this invention are shown in Table 2 by listing the minimum growth inhibitory concentrations (MIC, mcg/ml). […] The toxicity of these compounds was tested in animals by intravenous administration, and the LD50 values in mice are more than 400 mg/kg with all compounds. In therapeutical experiments with mice manually infected by Staphilococcus aureus SMITH, the ED50 values were less than 50 mg/kg (p.o.) with all said tylosin derivatives.

The test system of series [2] is Bacillus megaterium NRRL B-938. Put plainly: minimum growth-inhibitory concentration. The format is cell-based. The conditions noted are these: Priestia megaterium, NRRLB938. The method, then: as §1
Series [3] relates to Bacillus subtilis ATCC 6633. Put plainly: minimum growth-inhibitory concentration. Type of series: cell-based. The note with it: ATCC6633. The method, then:
as §1

Series [4] relates to Candida albicans IAM 4905. The series can be described thus: minimum growth-inhibitory concentration. The conditions noted are these: IAM4905. Type of series: cell-based. As to the method: as §1
The subject of series [5] is Candida tropicalis IAM 4924. Put plainly: minimum growth-inhibitory concentration. Type of series: cell-based. The note with it: IAM4924. As to the method:
as §1

Series [6] concerns Corynebacterium bovis 1810. The series can be described thus: minimum growth-inhibitory concentration. Type of series: cell-based. The method, then:
as §1

Series [7] deals with Escherichia coli (National Institute of Health). The series can be described thus: minimum growth-inhibitory concentration. Type of series: cell-based. As to the method:
as §1

For series [8], the system named is Micrococcus flavus I. The series can be described thus: minimum growth-inhibitory concentration. The format is cell-based. The method, then:
as §1

Series [9] concerns Mycobacterium smegmatis ATCC 607. Put plainly: minimum growth-inhibitory concentration. The format is cell-based. The note with it: Mycolicibacterium smegmatis, ATCC607. The method, then:
as §1

Series [10] relates to Proteus morganii (The Institute for Infectious Diseases). Put plainly: minimum growth-inhibitory concentration. Type of series: cell-based. The conditions noted are these: Morganella morganii. The method, then: as §1
Series [11] deals with Pseudomonas fluorescens NIHJB 254. Put plainly: minimum growth-inhibitory concentration. Type of series: cell-based. The note with it: NIHJB254. As to the method: as §1
In series [12] the test system is Sarcina lutea ATCC 9341. Put plainly: minimum growth-inhibitory concentration. The format is cell-based. The note with it: Micrococcus luteus, ATCC9341. The method, then:
as §1

Series [13] relates to Staphylococcus aureus FAD209P. The series can be described thus: minimum growth-inhibitory concentration. Type of series: cell-based. The note with it: read-out: minimum growth-inhibitory concentration (MIC). As to the method:
as §1

In series [14] the test system is Staphylococcus aureus SMITH. The series can be described thus: minimum growth-inhibitory concentration. The format is cell-based. As to the method: as §1
Series [15] deals with Staphylococcus aureus MS 8710. Put plainly: minimum growth-inhibitory concentration. Type of series: cell-based. The note with it: MS8710; Staphylococcus aureus MS 8710, drug resistant strain. As to the method:
as §1
(§2) The strains marked * in Table 2 are the drug resistant strains isolated from patients, namely, Staphilococcus aureus MS-9610 which is resistant to penicillin, tetracycline, erythromycin, leucomycin, spiramycin, josamycin and tylosin, Staphilococcus aureus MS-8710 which is resistant to penicillin, tetracycline, erythromycin, leucomycin and tylosin, and Streptococcus pyogenes MH 771 which is resistant to erythromycin, oleandomycin, leucomycin and tylosin.

Series [16] relates to Staphylococcus aureus MS 9610. The series can be described thus: minimum growth-inhibitory concentration. The format is cell-based. The note with it: MS9610; Staphylococcus aureus MS 9610, drug resistant strain. The method, then:
as §1, §2

Series [17] concerns Streptococcus pyogenes MH 771. The series can be described thus: minimum growth-inhibitory concentration. The note with it: MH771, read-out: minimum growth-inhibitory concentration (MIC). Type of series: cell-based. As to the method:
as §1
(broth-dilution method)
as §2

Series [18] has as its system drug resistant strains. Put plainly: antimicrobial activity against drug resistant strains. The format is cell-based. The conditions noted are these: strains marked * in Table 2.
From the text: One of the particular advantages of the said tylosin derivatives over known macrolide antibiotics is their distinct antimicrobial activity against drug resistant bacteria.
as §2

Series [19] is described as follows: solubility in solvents. Type of series: physicochemical. The conditions noted are these: for solubility in lower alcohols, ketones, ethers, esters, benzene and toluene: e.g. ethanol, acetone, ethyl ether, ethyl acetate. An excerpt:
(§3) The physicochemical analysis and deterimations included elementary analysis, melting point, specific rotatory power, ultraviolet spectrum, infrared spectrum, magnetic nuclear resonance (NMR), C^13 -NMR, mass spectrum (chemical ionization), the release of organic acids under alkaline conditions (gas chromatographical detection), solubility in solvents, color development reaction, basicity of the compounds, appearance and crystalline form. The molecular weight was obtained as QM^+ (Quasi Molecular ion) by chemically-ionized mass spectra analysis.
(§4) (2) the crystals obtained from the solvents in (13) were used for the tests in (1)-(12), and […]

Series [20] is described as follows: basicity of the compounds (alkalinity). Type of series: physicochemical.
From the text: as §3, §4

SMILES strings stand for the structures. Values after ≈ are worked out from the molar mass of the structure shown.

As for `CCCC(=O)OC1C(C)OC(OC2C(C)OC(OC3C(CC=O)CC(C)C(=O)C=CC(C)=CC(COC4OC(C)C(O)C(OC)C4OC)C(CC)OC(=O)CC(OC(=O)CC)C3C)C(O)C2N(C)C)CC1(C)O` (stereo not drawn) [3-propionyl-4"-n-butyryltylosin], the MIC was 1.95 µg/mL (≈ 1.87 µM) in [1]; 0.49 µg/mL (≈ 0.47 µM) in series [2]; 0.49 µg/mL (≈ 0.47 µM) in series [3]; over 250 µg/mL in [4]; over 250 µg/mL in [5]; 0.5 µg/mL (≈ 0.48 µM) in series [6]. Moreover, the MIC in series [7] is 250 µg/mL (≈ 240 µM); in series [8], 0.25 µg/mL (≈ 0.24 µM); in [9], 3.91 µg/mL (≈ 3.75 µM); in series [10], over 250 µg/mL; in [11] it was over 250 µg/mL; in series [12], under 0.12 µg/mL. The MIC in series [13] was determined as 0.98 µg/mL (≈ 0.94 µM); in series [14] it was 0.25 µg/mL (≈ 0.24 µM); in series [15] it was 31.3 µg/mL (≈ 30 µM); in series [16], 250 µg/mL (≈ 240 µM); in series [17], 15.6 µg/mL (≈ 15 µM). Moreover, the “antimicrobial activity against a wide range of drug resistant strains” value (“antimicrobial activity” for short) in [18] is “particularly strong antimicrobial activity”. Moreover, the “solubility in acidic water” value in [19] is “soluble”. For the same molecule, in series [19], the “solubility in alkaline water” value is “hardly soluble”. Further, the “solubility in lower alcohols, ketones, ethers, esters, benzene and toluene” value (“solubility in lower alcohols, ketones” for short) in series [19] is given as “soluble”. The “solubility in n-hexane and petroleum ether” value in series [19] was “hardly soluble”. Further, the “solubility in neutral water” value in series [19] is given as “slightly soluble”. In series [20], the alkalinity result is “alkaline compounds”.
Turning to `CCC1OC(=O)CC(O)C(C)C(OC2OC(C)C(OC3CC(C)(O)C(OC(=O)CC(C)C)C(C)O3)C(N(C)C)C2O)C(CC=O)CC(C)C(=O)/C=C/C(C)=C/C1COC1OC(C)C(O)C(OC)C1OC` (stereo not drawn) [4"-isovaleryltylosin], the MIC is 0.98 µg/mL (≈ 0.98 µM) in series [1]; 0.98 µg/mL (≈ 0.98 µM) in [2]; 0.49 µg/mL (≈ 0.49 µM) in series [3]; over 250 µg/mL in series [4]; over 250 µg/mL in series [5]; 0.5 µg/mL (≈ 0.5 µM) in series [6]. The MIC is 125 µg/mL (≈ 125 µM) in series [7]; 0.25 µg/mL (≈ 0.25 µM) in [8]; 3.91 µg/mL (≈ 3.91 µM) in series [9]; over 250 µg/mL in [10]; over 250 µg/mL in series [11]; under 0.12 µg/mL in series [12]. Also, the MIC in series [13] was 0.49 µg/mL (≈ 0.49 µM); in [14], 0.25 µg/mL (≈ 0.25 µM); in series [15], 15.6 µg/mL (≈ 15.6 µM); in [16], 62.5 µg/mL (≈ 62.5 µM); in series [17] it was 7.8 µg/mL (≈ 7.8 µM). For the same molecule, the “antimicrobial activity” value in [18] was “particularly strong antimicrobial activity”. Besides, the “solubility in acidic water” value in series [19] is given as “soluble”. Moreover, the “solubility in alkaline water” value in series [19] was “hardly soluble”. For the same molecule, the “solubility in lower alcohols, ketones” value in series [19] was “soluble”. For the same molecule, the “solubility in n-hexane and petroleum ether” value in [19] is listed as “hardly soluble”. Besides, in series [19], the “solubility in neutral water” value is “slightly soluble”. The alkalinity entry in series [20] is recorded as “alkaline compounds”.
`CCCC(=O)OC1C(C)OC(OC2C(C)OC(OC3C(CC=O)CC(C)C(=O)/C=C/C(C)=C/C(COC4OC(C)C(O)C(OC)C4OC)C(CC)OC(=O)CC(O)C3C)C(O)C2N(C)C)CC1(C)O` (stereo not drawn) [4"-n-butyryltylosin]: the MIC is 0.98 µg/mL (≈ 0.994 µM) in series [1]; 0.49 µg/mL (≈ 0.497 µM) in [2]; 0.49 µg/mL (≈ 0.497 µM) in [3]; over 250 µg/mL in series [4]; over 250 µg/mL in series [5]; 0.98 µg/mL (≈ 0.994 µM) in series [6]. The MIC in series [7] is 125 µg/mL (≈ 127 µM); in [8], 0.49 µg/mL (≈ 0.497 µM); in [9], 3.91 µg/mL (≈ 3.96 µM); in [10] it was over 250 µg/mL; in series [11] it was over 250 µg/mL; in series [12], 0.25 µg/mL (≈ 0.253 µM). Moreover, the MIC was 0.25 µg/mL (≈ 0.253 µM) in [13]; 0.25 µg/mL (≈ 0.253 µM) in series [14]; 62.5 µg/mL (≈ 63.4 µM) in series [15]; over 250 µg/mL in series [16]; 15.6 µg/mL (≈ 15.8 µM) in series [17]. Moreover, the “antimicrobial activity” value in [18] is “particularly strong antimicrobial activity”. In addition, in series [19], the “solubility in acidic water” value was “soluble”. For the same molecule, in [19], the “solubility in alkaline water” value was “hardly soluble”. For the same molecule, the “solubility in lower alcohols, ketones” value in series [19] was “soluble”. Further, the “solubility in n-hexane and petroleum ether” value in series [19] is “hardly soluble”. Also, the “solubility in neutral water” value in series [19] was “slightly soluble”. Further, the alkalinity result in [20] was “alkaline compounds”.
